Results as given in BindingDB's records for PubMed 35202969 (Maharishi Markandeshwar (Deemed To Be University), 2022).

Target: CYP3A4 (Homo sapiens, UniProt P08684)
Assay: Inhibition of CYP3A4 in human liver microsomes using midazolam as substrate
Conditions: probe midazolam

Sequence of CYP3A4 (P08684 whole entry): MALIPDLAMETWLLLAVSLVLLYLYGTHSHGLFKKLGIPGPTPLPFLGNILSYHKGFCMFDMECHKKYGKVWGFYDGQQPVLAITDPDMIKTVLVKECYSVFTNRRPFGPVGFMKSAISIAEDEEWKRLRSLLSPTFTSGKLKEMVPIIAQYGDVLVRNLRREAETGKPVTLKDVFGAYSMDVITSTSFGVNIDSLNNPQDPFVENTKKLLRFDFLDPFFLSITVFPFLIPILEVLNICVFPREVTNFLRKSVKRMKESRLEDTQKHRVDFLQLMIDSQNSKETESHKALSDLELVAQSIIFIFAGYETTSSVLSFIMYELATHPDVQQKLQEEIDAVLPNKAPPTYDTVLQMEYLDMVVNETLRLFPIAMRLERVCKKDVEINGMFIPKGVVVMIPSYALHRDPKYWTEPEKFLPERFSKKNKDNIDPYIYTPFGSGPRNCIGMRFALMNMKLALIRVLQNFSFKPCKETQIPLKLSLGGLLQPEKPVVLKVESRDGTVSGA

Ki: 67.9 µM
Compound: COc1c(N2CC[C@@H](C3(N)CC3)C2)ccc2c(=O)c(C(=O)O)cn([C@@H]3C[C@@H]3F)c12 [DX-619]
